Experimental data reported in patent US4966889A, “Treatment of inflammatory articular diseases” (Industria Farmaceutica Serono SpA, priority 1986, dated 1990).
Entries after “also recorded” stand apart in the source; their conditions may differ.

Legend:
[1] = system: patients affected by polyarticular RA; assay: Evaluation of efficacy of therapies in course prior to treatment; format: in vivo, human; set-up: key to Efficacy of present therapy: Nil; Scarce; Good; Excellent; settings: single cases
Excerpt: (§1) With reference to each of the clinical cases taken into consideration, supplied below are the particulars relevant to diagnosis, evaluation of efficacy of therapies in course prior to treatment (Nil, Scarce, Good, Excellent), and finally the clinical observations after treatment with Somatostatin (SS) or with Placebo (PL).

[2] = system: patients affected by polyarticular RA (knee joint); assay: Double-blind trial versus placebo: clinical observations and side effects; format: in vivo, human; settings: at the moment of administration or in the following days; 750 micrograms into knee joint
Protocol: Clinical efficacy of Somatostatin was verified by means of a double-blind trial versus placebo.
17 patients affected by polyarticular RA were selected for the trial. Each patient was informed about the experimental nature of the treatment. The articular site chosen for the study was the knee.
In accordance with the double-blind procedure (Somatostatin versus placebo), 10 patients were treated with Somatostatin ("STILAMIN", 750 micrograms) injected inside the knee joint.
Clinical observations were carried out at time 0, each 10 minutes of the first hour, than at hourly intervals for 3 hours. A further evaluation was made after one week; during the period between the treatment and the evaluation on the seventh day, the patients filled out a table for selfevaluation. Parameters chosen were Ritchie's Index and Huskisson's Scale of Pain, evaluation of pain being made when walking, upon flexion and supine.
as §1

[3] = single drug in course prior to treatment
[4] = Piroxicam 20 mg together with 6-alpha-methylprednisolone (8 mg or 4 mg)

| SMILES | Efficacy of present therapy [1, 3] | further results |
| --- | --- | --- |
| COc1ccc2cc([C@H](C)C(=O)O)ccc2c1 [Naproxen] | Good | Efficacy of present therapy ([1]; single drug in course prior to treatment, listed as Naproxene): Good and Scarce |
| O=C(O)Cc1ccccc1Nc1c(Cl)cccc1Cl [Diclofenac] | Scarce | – |
| CC(C(=O)O)c1ccc(C(=O)c2ccccc2)s1 (centres unmarked) [Thiaprophenic Acid] | Nil and Scarce | – |
| CC(C(=O)O)c1cccc(C(=O)c2ccccc2)c1 (centres unmarked) [Ketoprofene] | Nil | – |
| CCN(CCO)CCCC(C)Nc1ccnc2cc(Cl)ccc12 (centres unmarked) [Hydroxychloroquine] | – | results of basic therapy (case history) ([1]; before the trial): scarce results; also recorded: Disease still in acute phase |
| C[C@H](N)C(=O)NCC(=O)N[C@H]1CSSC[C@@H](C(=O)O)NC(=O)[C@H](CO)NC(=O)[C@H]([C@@H](C)O)NC(=O)[C@H](Cc2ccccc2)NC(=O)[C@H]([C@@H](C)O)NC(=O)[C@H](CCCCN)NC(=O)[C@H](Cc2c[nH]c3ccccc23)NC(=O)[C@H](Cc2ccccc2)NC(=O)[C@H](Cc2ccccc2)NC(=O)[C@H](CC(N)=O)NC(=O)[C@H](CCCCN)NC1=O [Somatostatin] | – | clinical side effects [2]: No verifiable clinical side effects |
| CN1C(C(=O)Nc2ccccn2)=C(O)c2ccccc2S1(=O)=O [Piroxicam] | Scarce | Efficacy of present therapy [1, 4]: Scarce |
| C[C@H]1C[C@@H]2[C@H]([C@@H](O)C[C@@]3(C)[C@H]2CC[C@]3(O)C(=O)CO)[C@@]2(C)C=CC(=O)C=C12 [6-alpha-methylprednisolone] | Scarce | Efficacy of present therapy [1, 4]: Scarce |
